Results on 9 compounds are retold here after ChEMBL document CHEMBL3132769, “Fragment growing to retain or alter the selectivity of anchored kinase hinge-binding fragments” (Medchemcomm, 2014).

For assay [1], the target named is T1, Serine/threonine-protein kinase 3 (Homo sapiens) (UniProt Q13188).
T1 sequence (whole entry): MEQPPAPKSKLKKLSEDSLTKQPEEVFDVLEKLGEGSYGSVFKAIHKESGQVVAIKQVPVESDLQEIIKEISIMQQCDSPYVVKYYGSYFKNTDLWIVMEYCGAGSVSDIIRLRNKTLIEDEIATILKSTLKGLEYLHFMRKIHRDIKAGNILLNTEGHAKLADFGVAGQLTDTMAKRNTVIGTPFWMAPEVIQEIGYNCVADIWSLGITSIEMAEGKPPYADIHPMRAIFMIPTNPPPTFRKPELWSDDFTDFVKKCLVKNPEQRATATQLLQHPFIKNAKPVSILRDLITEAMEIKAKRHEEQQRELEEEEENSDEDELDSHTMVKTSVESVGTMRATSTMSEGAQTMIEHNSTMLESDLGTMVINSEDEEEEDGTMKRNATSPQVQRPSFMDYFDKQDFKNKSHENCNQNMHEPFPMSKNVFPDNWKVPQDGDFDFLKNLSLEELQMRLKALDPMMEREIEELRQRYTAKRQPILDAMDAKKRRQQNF
Nature of the assay: Inhibition of human full length MST2 expressed in baculovirus assessed as substrate phosphorylation using fluorescence-labelled peptides as substrate at 2 uM after 90 mins by microfluidic peptide phosphorylation assay.

Assay [2] has as its target Protein kinase C eta type (Homo sapiens) (UniProt P24723). Briefly: Inhibition of human truncated PKC eta expressed in baculovirus assessed as substrate phosphorylation using fluorescence-labelled peptides as substrate at 2 uM after 90 mins by microfluidic peptide phosphorylation assay.
Assay [3] shares this target. As to conditions: 0.1 uM.
Description: Inhibition of human truncated PKC eta expressed in baculovirus assessed as substrate phosphorylation using fluorescence-labelled peptides as substrate at 0.1 uM after 90 mins by microfluidic peptide phosphorylation assay
Assay [4] deals with Protein kinase C gamma type (Homo sapiens) (UniProt P05129). Briefly: Inhibition of human truncated PKC gamma expressed in baculovirus assessed as substrate phosphorylation using fluorescence-labelled peptides as substrate at 0.1 uM after 90 mins by microfluidic peptide phosphorylation assay.
For assay [5], the target named is Glycogen synthase kinase-3 beta (Homo sapiens) (UniProt P49841). Conditions: 0.1 uM.
Description: Inhibition of human full length GSK-3 beta expressed in baculovirus assessed as substrate phosphorylation using fluorescence-labelled peptides as substrate at 0.1 uM after 90 mins by microfluidic peptide phosphorylation assay
The target in assay [6] is Tyrosine-protein kinase HCK (Homo sapiens) (UniProt P08631). Briefly: Inhibition of human HCK catalytic domain expressed in baculovirus assessed as substrate phosphorylation using fluorescence-labelled peptides as substrate at 0.2 uM after 90 mins by microfluidic peptide phosphorylation assay.
Assay [7] addresses Vascular endothelial growth factor receptor 2 (Homo sapiens) (UniProt P35968). Briefly: Inhibition of human KDR cytoplasmic domain expressed in baculovirus assessed as substrate phosphorylation using fluorescence-labelled peptides as substrate at 0.06 uM after 90 mins by microfluidic peptide phosphorylation assay.
Assay [8] has as its target Serine/threonine-protein kinase MARK1 (Homo sapiens) (UniProt Q9P0L2). Briefly: Inhibition of human full length MARK1 expressed in baculovirus assessed as substrate phosphorylation using fluorescence-labelled peptides as substrate at 0.06 uM after 90 mins by microfluidic peptide phosphorylation assay.
In assay [9] the target is Protein kinase C alpha type (Homo sapiens) (UniProt P17252). Nature of the assay: Inhibition of human truncated PKC alpha expressed in baculovirus assessed as substrate phosphorylation using fluorescence-labelled peptides as substrate at 9 uM after 90 mins by microfluidic peptide phosphorylation assay.
Assay [10] concerns the target Mitogen-activated protein kinase 1 (Homo sapiens) (UniProt P28482). Nature of the assay: Inhibition of human full length ERK2 expressed in Escherichia coli cell assessed as substrate phosphorylation using fluorescence-labelled peptides as substrate at 9 uM after 90 mins by microfluidic peptide phosphorylation assay.
Assay [11] addresses Ribosomal protein S6 kinase alpha-4 (Homo sapiens) (UniProt O75676). Briefly: Inhibition of human full length MSK2 expressed in baculovirus assessed as substrate phosphorylation using fluorescence-labelled peptides as substrate at 95 uM after 90 mins by microfluidic peptide phosphorylation assay.
The target of assay [12] is Serine/threonine-protein kinase MARK1 (Homo sapiens) (UniProt Q9P0L2). Briefly: Inhibition of human full length MARK1 expressed in baculovirus assessed as substrate phosphorylation using fluorescence-labelled peptides as substrate at 95 uM after 90 mins by microfluidic peptide phosphorylation assay.
The species entered for a further assay is Homo sapiens. Nature of the assay: Inhibition of human P70S6K catalytic domain expressed in baculovirus assessed as substrate phosphorylation using fluorescence-labelled peptides as substrate at 95 uM after 90 mins by microfluidic peptide phosphorylation assay.
Assay [13] has as its target Serine/threonine-protein kinase Chk2 (Homo sapiens) (UniProt O96017). Briefly: Inhibition of human full length CHK2 expressed in baculovirus assessed as substrate phosphorylation using fluorescence-labelled peptides as substrate at 8 uM after 90 mins by microfluidic peptide phosphorylation assay.
Assay [14] addresses Protein kinase C beta type (Homo sapiens) (UniProt P05771). Briefly: Inhibition of human full length PKC beta2 expressed in baculovirus assessed as substrate phosphorylation using fluorescence-labelled peptides as substrate at 420 uM after 90 mins by microfluidic peptide phosphorylation assay.
The target of assay [15] is T2, Serine/threonine-protein kinase D1 (Homo sapiens) (UniProt Q15139).
T2 sequence (whole entry): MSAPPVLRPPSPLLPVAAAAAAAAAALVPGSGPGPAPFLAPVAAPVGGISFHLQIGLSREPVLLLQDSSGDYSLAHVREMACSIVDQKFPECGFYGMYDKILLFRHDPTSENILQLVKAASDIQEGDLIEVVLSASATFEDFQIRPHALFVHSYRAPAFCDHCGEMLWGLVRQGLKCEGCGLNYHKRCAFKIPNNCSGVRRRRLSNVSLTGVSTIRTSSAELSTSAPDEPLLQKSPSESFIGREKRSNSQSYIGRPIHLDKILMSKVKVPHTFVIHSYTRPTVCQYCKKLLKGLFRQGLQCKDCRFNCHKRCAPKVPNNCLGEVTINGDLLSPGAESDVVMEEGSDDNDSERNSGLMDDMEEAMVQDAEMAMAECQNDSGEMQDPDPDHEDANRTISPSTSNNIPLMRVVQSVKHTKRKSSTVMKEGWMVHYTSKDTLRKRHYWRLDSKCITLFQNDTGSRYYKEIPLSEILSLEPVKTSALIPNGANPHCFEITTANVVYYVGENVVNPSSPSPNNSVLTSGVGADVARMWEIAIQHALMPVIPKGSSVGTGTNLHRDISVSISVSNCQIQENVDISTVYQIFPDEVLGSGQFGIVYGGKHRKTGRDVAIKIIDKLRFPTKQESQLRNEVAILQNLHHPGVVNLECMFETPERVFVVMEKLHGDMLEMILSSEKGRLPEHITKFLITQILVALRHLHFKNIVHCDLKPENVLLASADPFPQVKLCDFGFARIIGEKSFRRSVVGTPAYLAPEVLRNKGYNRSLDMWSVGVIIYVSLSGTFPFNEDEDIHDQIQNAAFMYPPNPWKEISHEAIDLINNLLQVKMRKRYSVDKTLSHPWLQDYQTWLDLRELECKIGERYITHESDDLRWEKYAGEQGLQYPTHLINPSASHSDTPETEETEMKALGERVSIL
Briefly: Inhibition of human full length PKD1 expressed in baculovirus assessed as substrate phosphorylation using fluorescence-labelled peptides as substrate at 1000 uM after 90 mins by microfluidic peptide phosphorylation assay.

The target of assay [16] is T1, Serine/threonine-protein kinase 3 (Homo sapiens). Nature of the assay: Inhibition of human full length MST2 expressed in baculovirus assessed as substrate phosphorylation using fluorescence-labelled peptides as substrate at 1000 uM after 90 mins by microfluidic peptide phosphorylation assay.

Chain of Serine/threonine-protein kinase MARK1 (Homo sapiens) (Q9P0L2 whole entry, looked up, the tested form may be a part): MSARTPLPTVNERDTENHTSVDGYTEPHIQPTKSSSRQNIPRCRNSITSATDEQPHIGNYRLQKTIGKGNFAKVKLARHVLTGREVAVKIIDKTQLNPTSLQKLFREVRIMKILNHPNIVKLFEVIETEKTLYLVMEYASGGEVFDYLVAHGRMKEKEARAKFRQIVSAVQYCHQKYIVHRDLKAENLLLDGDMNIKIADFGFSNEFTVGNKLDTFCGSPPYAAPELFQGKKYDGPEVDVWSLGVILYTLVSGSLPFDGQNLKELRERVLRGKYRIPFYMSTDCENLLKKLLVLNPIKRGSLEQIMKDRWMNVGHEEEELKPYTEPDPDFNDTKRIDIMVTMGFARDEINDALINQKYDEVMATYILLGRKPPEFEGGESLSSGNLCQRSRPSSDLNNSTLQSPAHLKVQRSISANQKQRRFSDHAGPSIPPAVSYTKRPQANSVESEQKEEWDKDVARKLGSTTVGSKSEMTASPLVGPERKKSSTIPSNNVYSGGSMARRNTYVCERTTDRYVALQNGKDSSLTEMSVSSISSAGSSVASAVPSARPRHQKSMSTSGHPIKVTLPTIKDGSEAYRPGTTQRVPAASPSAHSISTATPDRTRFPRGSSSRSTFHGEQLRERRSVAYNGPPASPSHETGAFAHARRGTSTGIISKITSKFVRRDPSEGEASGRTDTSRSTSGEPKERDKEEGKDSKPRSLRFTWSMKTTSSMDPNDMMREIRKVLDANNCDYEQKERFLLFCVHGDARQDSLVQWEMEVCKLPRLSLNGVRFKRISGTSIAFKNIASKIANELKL
Chain of Protein kinase C eta type (Homo sapiens) (P24723 whole entry, the tested form may be a part): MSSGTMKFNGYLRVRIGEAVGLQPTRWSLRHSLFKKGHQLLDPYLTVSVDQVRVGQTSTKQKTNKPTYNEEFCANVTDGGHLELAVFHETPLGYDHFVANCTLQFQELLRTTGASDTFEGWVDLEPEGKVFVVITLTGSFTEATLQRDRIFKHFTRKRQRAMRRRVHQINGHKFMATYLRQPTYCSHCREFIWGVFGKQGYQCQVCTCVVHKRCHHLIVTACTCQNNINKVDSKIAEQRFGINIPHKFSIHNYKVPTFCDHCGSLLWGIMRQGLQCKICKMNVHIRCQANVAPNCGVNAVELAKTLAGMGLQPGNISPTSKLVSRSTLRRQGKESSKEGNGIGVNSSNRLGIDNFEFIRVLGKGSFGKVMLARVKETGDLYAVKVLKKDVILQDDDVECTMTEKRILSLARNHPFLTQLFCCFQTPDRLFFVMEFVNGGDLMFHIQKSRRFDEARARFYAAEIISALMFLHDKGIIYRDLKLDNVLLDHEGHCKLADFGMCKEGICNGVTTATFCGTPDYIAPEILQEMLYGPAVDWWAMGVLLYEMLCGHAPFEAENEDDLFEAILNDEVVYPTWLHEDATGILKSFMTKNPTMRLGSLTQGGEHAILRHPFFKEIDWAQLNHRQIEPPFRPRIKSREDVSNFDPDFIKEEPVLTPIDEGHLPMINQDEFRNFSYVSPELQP
Chain of Serine/threonine-protein kinase Chk2 (Homo sapiens) (O96017 whole entry): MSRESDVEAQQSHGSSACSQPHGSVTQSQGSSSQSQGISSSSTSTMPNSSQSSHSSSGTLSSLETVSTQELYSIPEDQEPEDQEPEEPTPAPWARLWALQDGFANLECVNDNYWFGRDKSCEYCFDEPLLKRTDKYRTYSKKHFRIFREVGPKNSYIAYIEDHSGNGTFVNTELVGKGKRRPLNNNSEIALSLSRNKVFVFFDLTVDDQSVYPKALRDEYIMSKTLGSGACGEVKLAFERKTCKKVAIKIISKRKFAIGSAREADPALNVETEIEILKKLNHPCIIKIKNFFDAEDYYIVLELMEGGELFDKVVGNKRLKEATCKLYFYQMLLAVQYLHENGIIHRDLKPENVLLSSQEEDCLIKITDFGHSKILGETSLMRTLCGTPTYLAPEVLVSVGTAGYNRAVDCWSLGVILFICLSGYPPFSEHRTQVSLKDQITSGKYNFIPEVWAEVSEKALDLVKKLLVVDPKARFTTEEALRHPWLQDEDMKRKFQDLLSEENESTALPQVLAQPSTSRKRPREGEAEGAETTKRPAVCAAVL
Chain of Tyrosine-protein kinase HCK (Homo sapiens) (P08631 2-526 limits assumed): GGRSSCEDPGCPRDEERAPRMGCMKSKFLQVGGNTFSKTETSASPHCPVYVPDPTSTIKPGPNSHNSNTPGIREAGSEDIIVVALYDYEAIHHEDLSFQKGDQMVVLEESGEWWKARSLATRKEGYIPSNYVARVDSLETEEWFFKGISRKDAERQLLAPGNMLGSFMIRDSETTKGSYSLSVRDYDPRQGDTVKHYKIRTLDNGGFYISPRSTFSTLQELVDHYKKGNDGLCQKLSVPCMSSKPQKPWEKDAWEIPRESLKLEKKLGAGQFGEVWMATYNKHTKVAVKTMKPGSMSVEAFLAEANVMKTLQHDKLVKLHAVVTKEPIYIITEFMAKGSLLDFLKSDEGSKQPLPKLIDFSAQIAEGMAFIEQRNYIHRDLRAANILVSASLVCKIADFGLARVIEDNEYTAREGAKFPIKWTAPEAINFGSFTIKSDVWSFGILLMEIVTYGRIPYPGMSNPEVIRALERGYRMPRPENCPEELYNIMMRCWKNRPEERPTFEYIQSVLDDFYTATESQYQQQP
Chain of Protein kinase C beta type (Homo sapiens) (P05771 2-671 limits assumed): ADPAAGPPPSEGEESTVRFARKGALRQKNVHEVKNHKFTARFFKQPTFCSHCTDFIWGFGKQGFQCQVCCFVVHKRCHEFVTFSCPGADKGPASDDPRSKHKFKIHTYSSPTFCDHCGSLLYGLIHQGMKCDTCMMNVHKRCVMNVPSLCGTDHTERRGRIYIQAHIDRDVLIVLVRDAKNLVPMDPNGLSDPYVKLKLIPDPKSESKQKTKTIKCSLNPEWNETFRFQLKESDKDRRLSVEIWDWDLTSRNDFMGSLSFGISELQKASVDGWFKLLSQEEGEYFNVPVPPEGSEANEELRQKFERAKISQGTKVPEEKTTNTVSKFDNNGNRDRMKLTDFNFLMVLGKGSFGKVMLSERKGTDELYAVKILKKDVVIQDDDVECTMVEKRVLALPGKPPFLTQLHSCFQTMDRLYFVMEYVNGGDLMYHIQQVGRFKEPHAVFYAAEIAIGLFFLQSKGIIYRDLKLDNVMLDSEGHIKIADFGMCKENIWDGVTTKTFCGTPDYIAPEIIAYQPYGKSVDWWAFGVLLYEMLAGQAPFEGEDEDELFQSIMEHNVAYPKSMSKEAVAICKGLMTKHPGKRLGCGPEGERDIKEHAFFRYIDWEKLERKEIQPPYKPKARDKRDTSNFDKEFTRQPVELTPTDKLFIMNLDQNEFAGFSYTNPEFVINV
Chain of Glycogen synthase kinase-3 beta (Homo sapiens) (P49841 whole entry, looked up, the tested form may be a part): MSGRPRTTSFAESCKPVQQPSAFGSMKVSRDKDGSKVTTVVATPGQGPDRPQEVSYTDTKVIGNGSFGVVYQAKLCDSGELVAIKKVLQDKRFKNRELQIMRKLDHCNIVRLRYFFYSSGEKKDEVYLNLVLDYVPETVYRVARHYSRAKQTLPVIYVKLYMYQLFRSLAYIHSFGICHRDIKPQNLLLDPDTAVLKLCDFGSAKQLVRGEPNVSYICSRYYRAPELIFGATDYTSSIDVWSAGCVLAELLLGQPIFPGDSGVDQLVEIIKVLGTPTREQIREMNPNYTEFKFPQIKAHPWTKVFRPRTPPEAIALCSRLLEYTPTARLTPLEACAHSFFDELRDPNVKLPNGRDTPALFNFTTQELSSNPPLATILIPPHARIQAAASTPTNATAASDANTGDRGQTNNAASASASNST

In the case of `NC1CCN(c2ncnc3[nH]ccc23)CC1`, the inhibition in assay [1] was 17.5%; in [2], 56.5%.

Take `C[C@H](CN(C)C)Oc1nc(Nc2cc3cccc(Cl)c3cn2)cnc1C#N`: the inhibition was 0% in assay [3], 6% in assay [4] and 0% in [5].

Regarding `Clc1ccc(C2(c3ccc(-c4ncnc5[nH]cnc45)cc3)CCNCC2)cc1`, the inhibition in assay [6] was found to be 35%.

Take `NC1(Cc2ccc(Cl)cc2)CCN(c2ncnc3[nH]ccc23)CC1`: the inhibition was 0% in [7] and 4.5% in assay [8].

Consider `NCC1CN(c2ncnc3[nH]c4cnccc4c23)CCO1` (configuration not stated), for which the inhibition in assay [9] came to 14.5%; in [10] it was 1.5%.

Turning to `NCCc1ccc(-c2ncnc3[nH]cnc23)cc1`, the inhibition in [11] turned out to be 54%; in assay [12], 97%; in the assay listed under Homo sapiens, 49%.

For the compound `NCC1CCN(c2ncnc3[nH]ccc23)CC1`, the inhibition in [13] was found to be 0%.

For `c1nc(N2CCOCC2)c2nc[nH]c2n1`, in [14], the inhibition was 38%.

As for `c1cnc2[nH]ccc2c1`, the inhibition was 54% in [15] and 63% in assay [16].
